1 substance from patent publication US9615572B1, “Disinfectant spray comprising copper iodide” (PEN Inc., priority 2014, dated 2017) can be followed below.

The experiment deals with feline calcivirus ATCC VR-782. The note with it: 20 mg/L in a water based solution applied to a surface; 10 minutes exposure; non-enveloped virus. The procedure: Copper ions (20 mg/L) in a water based solution were applied to a surface with the non-enveloped feline calcivirus ATCC VR-782. […] In our case we wanted to have an idea about the rate of killing and this is why we limited the test to 10 minutes.

With copper iodide, the “reduction relative to the control” value amounted to 82.22%.
